Measured values reported in patent US5888504A, “Natural composition for combatting fungi” (Van den Bergh Foods Co., Division of Conopco, Inc., priority 1995, dated 1999).
“Also recorded” adds a separate entry of the source.

Key:
Assay type in all cases: cell-based
Aspergillus niger = assay: Outgrowth of Aspergillus niger spores in malt extract broth/agar, microtitre plate, OD 620 nm; settings: no enzyme
Experimental: An aqueous solution (demineralised water) was prepared containing 0.2 wt. % of the antifungal substance NovoZyme™ 234 and 0.002 wt. % of nisin. 75 μl of the solution were warmed to 20° C. and added to the well of a microtitre plate. Then 75 μl of a solution containing 4 wt. % of malt extract broth (ex Oxoid), 0.75 wt. % of agar (ex Difco) and 1000 spores of the fungus Aspergillus niger was heated to 25° C. and added to the test solution in the well (pH 5.1).
The procedure was repeated with solutions containing 0.004, 0.008, 0.016, 0.032 and 0.064 wt. % of nisin. The contents of the wells were thoroughly mixed and 75 μl of paraffin oil was loaded on top of the mixture. Finally, the plates were sealed with an oxygen permeable foil (Merlin).
During 360 hours the OD 620 nm was measured at regular intervals using a Multiscan devise MCC 340. Fungal outgrowth was defined when an OD (optical density) increase of at least 0.1 occurred.
[…] 75 μl of the solution were warmed to 20° C. and added to the well of a microtitre plate. Then 75 μl of a solution containing 4 wt. % malt extract broth (ex Oxoid), 0.75 wt. % agar (ex Difco) and 1000 spores of the fungus Aspergillus niger was heated to 25° C. and added to the test solution in the well (pH 5.1). […] During 360 hours the OD 620 nm was measured at regular intervals using a Multiscan devise MCC 340. […]

Paecilomyces variotii [1] = assay: Outgrowth of Paecilomyces variotii spores, microtitre plate (Example 2 repeated); settings: histatin without enzyme
Experimental: An aqueous solution (demineralised water) was prepared containing 0.2 wt. % of the antifungal substance NovoZyme™ 234 and 0.002 wt. % of histatin. 75 μl of the solution were warmed to 20° C. and added to the well of a microtitre plate. Then 75 μl of a solution containing 4 wt. % malt extract broth (ex Oxoid), 0.75 wt. % agar (ex Difco) and 1000 spores of the fungus Aspergillus niger was heated to 25° C. and added to the test solution in the well (pH 5.1). The procedure was repeated with solutions containing 0.004, 0.008, 0.016, 0.032 and 0.064 wt. % of histatin. The contents of the wells were thoroughly mixed and 75 μl of paraffin oil was loaded on top of the mixture. Finally, the plates were sealed with an oxygen permeable foil (Merlin). During 360 hours the OD 620 nm was measured at regular intervals using a Multiscan devise MCC 340. Fungal outgrowth was defined when an OD increase of at least 0.1 occurred.
Example 2 is repeated with the fungus Paecilomyces variotii.

Penicillium roqueforti = assay: Outgrowth of Penicillium roqueforti inoculated on processed cheese; settings: nisin 0.05 wt. % or NovoZyme 234 2 wt. % singly
Text: The surface of processed cheese was inoculated in the centre with Penicillium roqueforti. Admixture of nisin of the lytic enzymes was done in a laminar air flow cabinet. The samples were observed during 16 days (see FIG. 7).
Fungal growth is expressed as the diameter of the colonies. When NovoZyme™ 234 (2 wt. %) was present fungal outgrowth was considerably delayed and became visible only after 12 days.

Paecilomyces variotii [2] = assay: Extent of outgrowth of Paecilomyces variotii in malt extract broth in serum bottles; settings: 1 μM carvacrol, absence of enzyme; observed during ten days
Experimental: Solutions (30 ml) were prepared containing […] dissolved in malt extract broth. Novozyme™234 was present in concentrations of 1, 0.1 and 0 mg/ml. For comparison a solution was prepared containing 1 mg/ml of Novozyme™, but without carvacrol and one in which both enzyme and carvacrol were absent. 50 ml serum bottles filled with the solutions were inoculated with 1000 spores of Paecilomyces variotii. The height of the bars of FIG. 5 indicates the extent of outgrowth of the fungi observed during ten days. The highest bars ("100") indicate full outgrowth of the fungi, which occurs in solutions without carvacrol and with 1 mg/ml or less enzyme. Observed growth inhibition is expressed by the "50" bars. The presence of 1 μM carvacrol causes inhibition of growth, even in the absence of enzyme. When 1 mg/ml of enzyme is present together with 1 μM of carvacrol even germination of the fungal spores ("25" bars) does no longer occurs.

## histatin
Aspergillus niger; histatin 0 to 0.032 wt. %, particularly at 0.008 wt. % and higher
  retarding fungal growth (time needed for outgrowth): slightly active in retarding fungal growth
Paecilomyces variotii [1]
  concentration at which fungal growth inhibition is shown: ≥ 0.004 wt. %

## nisin
Penicillium roqueforti
  time after which fungal outgrowth showed: 4 days
Aspergillus niger; nisin 0 to 0.032 wt. %, pH 5.1, followed 360 hours
  effect on postponing the onset of fungal growth (time needed for outgrowth): no fungal growth inhibition has been observed; also recorded: no substantial effect

## Cc1ccc(C(C)C)cc1O [carvacrol]
Paecilomyces variotii [2]
  extent of outgrowth (height of bar): 50
